Experimental data published in paper PMC6944674, “Comparison of the Hepatotoxic Potential of Two Treatments for Autosomal-Dominant Polycystic Kidney DiseaseUsing Quantitative Systems Toxicology Modeling” (Pharmaceutical Research, 2020).
Values joined by “and” are separate entries in the source; they are usually repeats but may differ in a detail not shown here. Equal values may be shown once. Read-outs that look alike come from different tables or passages of the source.

Key:
human BSEP [1] = target: T1, human BSEP (Homo sapiens, UniProt O95342); experiment: BSEP vesicular transport inhibition assay (taurocholate, HEK-293 cell membrane vesicles); type: biochemical
T1 construct: host or cells: HEK-293 cell membrane vesicles
T1 sequence (O95342 whole entry): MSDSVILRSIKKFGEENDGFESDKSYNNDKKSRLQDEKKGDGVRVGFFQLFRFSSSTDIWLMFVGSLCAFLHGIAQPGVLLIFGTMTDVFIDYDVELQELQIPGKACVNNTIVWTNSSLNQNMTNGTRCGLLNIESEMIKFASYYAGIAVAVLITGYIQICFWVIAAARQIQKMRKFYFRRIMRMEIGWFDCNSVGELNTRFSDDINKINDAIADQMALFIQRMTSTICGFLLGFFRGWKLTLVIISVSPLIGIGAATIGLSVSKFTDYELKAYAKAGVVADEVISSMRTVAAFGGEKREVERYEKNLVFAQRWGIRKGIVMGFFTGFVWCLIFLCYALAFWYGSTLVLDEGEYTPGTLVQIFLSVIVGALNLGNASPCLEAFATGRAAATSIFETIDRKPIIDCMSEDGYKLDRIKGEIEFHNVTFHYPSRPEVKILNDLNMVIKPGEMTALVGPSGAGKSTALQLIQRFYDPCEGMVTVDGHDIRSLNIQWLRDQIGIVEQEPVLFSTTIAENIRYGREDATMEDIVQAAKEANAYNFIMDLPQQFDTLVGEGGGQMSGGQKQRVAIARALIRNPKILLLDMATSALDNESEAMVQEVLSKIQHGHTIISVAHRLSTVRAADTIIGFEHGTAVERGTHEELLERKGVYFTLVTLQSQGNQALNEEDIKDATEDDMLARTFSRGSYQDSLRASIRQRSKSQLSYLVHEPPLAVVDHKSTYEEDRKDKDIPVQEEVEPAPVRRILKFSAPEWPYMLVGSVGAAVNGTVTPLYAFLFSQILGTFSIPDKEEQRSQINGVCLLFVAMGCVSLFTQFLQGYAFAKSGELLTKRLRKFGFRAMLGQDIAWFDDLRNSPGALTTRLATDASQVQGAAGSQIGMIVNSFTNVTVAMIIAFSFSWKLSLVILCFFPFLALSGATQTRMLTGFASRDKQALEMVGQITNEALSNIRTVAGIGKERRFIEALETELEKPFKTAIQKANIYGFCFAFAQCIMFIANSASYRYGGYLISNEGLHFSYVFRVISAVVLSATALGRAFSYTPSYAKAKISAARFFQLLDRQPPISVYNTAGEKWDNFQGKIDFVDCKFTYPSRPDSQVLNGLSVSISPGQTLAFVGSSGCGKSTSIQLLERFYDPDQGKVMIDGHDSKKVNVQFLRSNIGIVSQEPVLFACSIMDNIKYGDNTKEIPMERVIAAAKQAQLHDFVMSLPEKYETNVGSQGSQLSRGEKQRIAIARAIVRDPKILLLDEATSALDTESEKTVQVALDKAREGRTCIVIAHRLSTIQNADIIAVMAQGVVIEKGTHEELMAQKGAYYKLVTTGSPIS
Procedure: (§1) The functional impact of lixivaptan, its three metabolites and tolvaptan on the human ABC (efflux) transporters BSEP and MRP3 and MRP4 was assessed for this project using in vitro vesicular transport inhibition assays. The inhibition of the human SLC (uptake) transporter NTCP was assessed using CHO cells stably expressing human NTCP. The concentration ranges used for the five test articles was determined based on the solubility of each compound in the assay solution. All transporter inhibition assays were conducted in triplicate by Solvo Biotechnology (Szeged, Hungary).
For the simulation of bile acid transporter inhibition by lixivaptan in DILIsym, parameter values were selected for BSEP canalicular transport, basolateral transport (encompassing both MRP3 and MRP4), and NTCP transport. The parameter values for each include the inhibition constant, defined as the IC50 or Ki value, and the inhibition type, defined as competitive, non-competitive, or mixed inhibition.
In vesicular transport inhibition assays, lixivaptan and its metabolites each inhibited BSEP-mediated probe substrate accumulation (Figure B1) and MRP4-mediated probe substrate accumulation (Figure B2) dose-dependently.
Figure B1. […] See Appendix A for more details.

human NTCP = target: T2, human NTCP (Homo sapiens, UniProt Q14973); experiment: NTCP inhibition in CHO cells stably expressing human NTCP (taurocholate); type: cell-based; settings: CHO cells
T2 sequence (Q14973 1-349): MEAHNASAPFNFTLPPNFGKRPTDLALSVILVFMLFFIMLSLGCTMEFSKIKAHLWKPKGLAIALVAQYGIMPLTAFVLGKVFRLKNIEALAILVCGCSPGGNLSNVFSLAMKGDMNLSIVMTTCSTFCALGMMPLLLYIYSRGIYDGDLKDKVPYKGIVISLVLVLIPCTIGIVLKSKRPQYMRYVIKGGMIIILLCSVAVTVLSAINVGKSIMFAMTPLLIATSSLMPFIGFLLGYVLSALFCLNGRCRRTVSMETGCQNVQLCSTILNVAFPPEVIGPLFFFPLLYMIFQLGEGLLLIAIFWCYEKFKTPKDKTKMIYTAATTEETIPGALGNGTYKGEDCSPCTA
Procedure: as §1
Figure B4. […] See Appendix A for more details.

human MRP3 = target: T3, human MRP3 (Homo sapiens, UniProt O15438); experiment: MRP3 vesicular transport inhibition assay (E217βG, HEK-293 cell membrane vesicles); type: biochemical
T3 construct: host or cells: HEK-293 cell membrane vesicles
T3 sequence (O15438 whole entry): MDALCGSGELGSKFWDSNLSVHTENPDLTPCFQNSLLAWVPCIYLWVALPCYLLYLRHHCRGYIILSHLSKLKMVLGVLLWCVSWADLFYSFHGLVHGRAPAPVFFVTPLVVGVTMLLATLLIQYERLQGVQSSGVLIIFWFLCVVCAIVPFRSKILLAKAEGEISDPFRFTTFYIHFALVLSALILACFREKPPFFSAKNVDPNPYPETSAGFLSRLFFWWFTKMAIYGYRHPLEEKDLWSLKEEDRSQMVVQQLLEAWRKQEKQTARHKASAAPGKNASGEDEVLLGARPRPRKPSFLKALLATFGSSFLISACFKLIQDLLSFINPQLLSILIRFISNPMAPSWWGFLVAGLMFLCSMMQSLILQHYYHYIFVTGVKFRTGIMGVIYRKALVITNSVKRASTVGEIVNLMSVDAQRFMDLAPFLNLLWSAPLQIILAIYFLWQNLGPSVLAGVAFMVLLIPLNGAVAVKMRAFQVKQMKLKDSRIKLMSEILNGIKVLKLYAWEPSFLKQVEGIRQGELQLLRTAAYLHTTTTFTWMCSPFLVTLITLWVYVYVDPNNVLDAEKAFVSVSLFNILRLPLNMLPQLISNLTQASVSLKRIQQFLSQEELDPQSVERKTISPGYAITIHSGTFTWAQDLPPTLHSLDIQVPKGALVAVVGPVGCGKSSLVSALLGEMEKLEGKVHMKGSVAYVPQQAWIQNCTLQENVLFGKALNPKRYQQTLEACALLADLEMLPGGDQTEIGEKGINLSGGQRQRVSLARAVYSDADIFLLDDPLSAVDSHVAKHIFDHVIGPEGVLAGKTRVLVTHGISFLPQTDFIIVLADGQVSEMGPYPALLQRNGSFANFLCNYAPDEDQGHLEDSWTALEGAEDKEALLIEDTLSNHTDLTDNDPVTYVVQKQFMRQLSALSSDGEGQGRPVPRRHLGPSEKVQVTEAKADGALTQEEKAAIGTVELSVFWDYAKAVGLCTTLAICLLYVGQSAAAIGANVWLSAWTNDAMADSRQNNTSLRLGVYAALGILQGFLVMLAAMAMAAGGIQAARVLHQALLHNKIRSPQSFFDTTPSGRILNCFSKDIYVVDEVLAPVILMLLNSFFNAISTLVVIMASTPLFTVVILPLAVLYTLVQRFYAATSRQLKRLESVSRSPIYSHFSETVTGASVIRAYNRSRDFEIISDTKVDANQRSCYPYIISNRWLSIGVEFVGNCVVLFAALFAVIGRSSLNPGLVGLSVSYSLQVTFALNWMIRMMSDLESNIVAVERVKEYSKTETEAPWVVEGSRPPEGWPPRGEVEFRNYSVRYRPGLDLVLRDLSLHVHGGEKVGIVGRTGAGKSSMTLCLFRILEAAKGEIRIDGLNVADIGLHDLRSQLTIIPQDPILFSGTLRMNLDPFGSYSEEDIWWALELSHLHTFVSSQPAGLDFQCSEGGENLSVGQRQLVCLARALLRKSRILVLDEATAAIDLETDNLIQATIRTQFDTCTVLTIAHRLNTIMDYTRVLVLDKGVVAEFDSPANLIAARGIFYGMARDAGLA
Procedure: as §1
Figure B3. […] See Appendix A for more details.

HepG2 cells [2] = experiment: Seahorse XFe96 cellular respiration assay (oxygen consumption rate); type: cell-based; settings: 24 hour incubation
Procedure: To assess the potential effect of the five test articles on mitochondrial function, cellular respiration assays using a Seahorse XFe96 Flux Analyzer were conducted by Cyprotex (Macclesfield, UK) and overseen by the authors. HepG2 cells were incubated with each test article for 1 or 24 hours and tested for an effect on cellular respiration by measuring the oxygen consumption rate (OCR). Each study was conducted in triplicate. Importantly, the 1 hour culture was conducted in the absence of serum (i.e. no serum protein binding) as is standard for the Seahorse Analyzer assay conditions.

[3] = system: mitochondrial electron transport chain; experiment: ETC inhibition parameter from MITOsym simulation of OCR data, translated to DILIsym; settings: calculated from 24 h HepG2 OCR data and measured intracellular concentrations; lower = higher risk
Text: The parameters calculated in this manner were then translated to DILIsym parameters using a conversion factor based on the relative activity of rotenone in the in vitro vs. in vivo environment (7).

[4] = Intracellular concentration by LC/MS/MS in HepG2 cultures parallel to Seahorse assay; type: in vitro ADME; settings: human, HepG2 cells, Seahorse medium
Procedure: (§2) The concentration of test compound at the site of action (i.e. hepatocytes) has been identified as highly influential in the selection of parameter values (7). To assess intracellular concentrations of the five test articles, identical HepG2 cultures were established in parallel and cell lysate concentrations of the test articles were measured by LC/MS/MS analysis. Intracellular concentrations of the test articles were calculated by correcting for cell lysate volume (100 µL) and the volume of HepG2 cells in each well, which was calculated by multiplying cell count per well by cellular volume per cell (2.85 pl/cell). One independent study in duplicate was conducted to assess intracellular concentrations of the test articles for Seahorse studies.

HepG2 cells [5] = experiment: as above; type: in vitro ADME; settings: Seahorse medium; for CIntracellular Fraction: cell lysate; for CHepatocyte: corrected for lysate and HepG2 cell volume
Procedure: as §2

human BSEP [6] = target: T1, human BSEP; parameters: method as in earlier work; settings: ref (7); read-out: BSEP Ki used in DILIsym simulations previously; cited from earlier work
[7] = system: mitochondrial electron transport chain; settings: intracellular concentrations not measured; cited from earlier work
simulated individuals = system: simulated individuals; parameters: method as in PMID 27655350; settings: 24 weeks, cited from earlier work; for Simulated ALT >3X ULN, frequency: 90/30 mg split daily dosing
[8] = 90/30 mg, cited from earlier work

Cc1ccccc1C(=O)Nc1ccc(C(=O)N2CCCC(O)c3cc(Cl)ccc32)c(C)c1 (centres unmarked) [Tolvaptan, tolvaptan, reference compound]
IC50 (human BSEP [1]; read-out: BSEP inhibition constant (IC50)): 16.5 µM | inhibition of BSEP-mediated probe substrate accumulation (human BSEP [1]; vesicular transport inhibition assay): inhibited | inhibition of NTCP-mediated probe substrate accumulation (human NTCP): inhibited | inhibition of MRP3-mediated probe substrate accumulation (human MRP3): inhibited | effect on HepG2 oxygen consumption rate (mitochondrial respiration) (HepG2 cells [2]): reduce the HepG2 OCR in a dose-dependent manner | Coefficient for ETC inhibition (DILIsym parameter) [3]: 729 µM | Kp at 5 µM ([4]; dose 5 µM): 6.44 | Kp at 10 µM ([4]; dose 10 µM): 3.44 | Kp at 25 µM ([4]; dose 25 µM): 5.97 | Kp at 40 µM ([4]; dose 40 µM): 5.7 | CIntracellular Fraction (HepG2 cells [5]; dose 0.1 µM): 0 µM | CHepatocyte (HepG2 cells [5]; dose 0.1 µM): 0 µM | CIntracellular Fraction (HepG2 cells [5]; dose 0.5 µM): 0 µM | CHepatocyte (HepG2 cells [5]; dose 0.5 µM): 0 µM | CIntracellular Fraction (HepG2 cells [5]; dose 1 µM): 0 µM | CHepatocyte (HepG2 cells [5]; dose 1 µM): 0 µM | CIntracellular Fraction (HepG2 cells [5]; dose 5 µM): 0.0156 µM | CHepatocyte (HepG2 cells [5]; dose 5 µM): 32.20 µM | CIntracellular Fraction (HepG2 cells [5]; dose 10 µM): 0.0162 µM | CHepatocyte (HepG2 cells [5]; dose 10 µM): 34.40 µM | CIntracellular Fraction (HepG2 cells [5]; dose 25 µM): 0.0629 µM | CHepatocyte (HepG2 cells [5]; dose 25 µM): 149.2 µM | CIntracellular Fraction (HepG2 cells [5]; dose 40 µM): 0.0937 µM | CHepatocyte (HepG2 cells [5]; dose 40 µM): 227.9 µM | Ki (human BSEP [6]): 31.6 µM | Coefficient for ETC inhibition (DILIsym parameter) used in previously published research [7]: 1.09 mM | Simulated ALT >3X ULN, frequency (simulated individuals): 7.86% | Simulated ALT >3X ULN, frequency (simulated individuals; listed as tolvaptan): 7.86% | Simulated ALT >3X ULN (simulated individuals; 90/30 mg): 18/229 | Simulated Hy's Law Cases (simulated individuals; 90/30 mg): Yes | Clinical Hy's Law Cases ([8]; ADPKD): Yes | Clinical ALT >3X ULN, frequency ([8]; treated ADPKD patients): 4.4% and 5.6%
